Laboratory results: US9399646B2 (Genentech, Inc., priority 2010, dated 2016)

Legend:
[1] = tested on: MCF-7 cells; experiment: Breast cancer cell viability assay (CellTiter-Glo, 5 days); assay type: cell-based; conditions: 5 days' compound exposure; for IC50: Homo sapiens, MCF7, 120 h
Method in brief: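 MCF-7 cells, 320 per well in RPMI with 10% FBS and 20 mM HEPES, adhered overnight, then exposed 5 days to an eleven-point semilog dilution (final 0.3-0.000003 μM). CellTiter-Glo luminescence read; % viability = (sample − cell-free background)/(untreated − background) × 100.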

[2] = biological target: T1, ER-α in MCF-7 cells (Homo sapiens, UniProt P03372); experiment: Breast cancer cell ER-α in cell western assay (SP1); assay type: cell-based; design: endogenous in cells; host or cells: MCF-7; conditions: 4 or 24 hr post compound addition; for Emax: MCF7, SP1 antibody, read-out: ER-α In Cell Western Assay (SP1) Max Response; for DC50: SP1 antibody, read-out: ER-α In Cell Western Assay (SP1) IC50
T1 sequence (P03372 1-595): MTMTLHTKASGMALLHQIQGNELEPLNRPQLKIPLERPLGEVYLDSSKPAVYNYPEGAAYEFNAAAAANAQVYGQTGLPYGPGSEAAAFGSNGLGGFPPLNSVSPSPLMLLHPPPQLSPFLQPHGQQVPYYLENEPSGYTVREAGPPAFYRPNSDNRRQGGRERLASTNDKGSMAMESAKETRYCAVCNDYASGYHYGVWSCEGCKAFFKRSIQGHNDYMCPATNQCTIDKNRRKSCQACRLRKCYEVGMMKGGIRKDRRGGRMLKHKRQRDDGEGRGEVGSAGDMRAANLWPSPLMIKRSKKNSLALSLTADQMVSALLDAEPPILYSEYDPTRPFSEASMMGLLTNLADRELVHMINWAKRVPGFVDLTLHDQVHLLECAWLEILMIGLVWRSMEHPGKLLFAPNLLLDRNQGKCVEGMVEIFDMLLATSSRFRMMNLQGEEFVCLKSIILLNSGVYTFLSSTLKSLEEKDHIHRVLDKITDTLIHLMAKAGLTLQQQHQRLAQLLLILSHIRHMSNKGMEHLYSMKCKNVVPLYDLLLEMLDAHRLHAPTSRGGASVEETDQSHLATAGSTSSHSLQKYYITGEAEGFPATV
Method in brief: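 Read-out is infrared in-cell western: SP1-detected ER intensity at 800 nm divided by DRAQ5 DNA intensity at 700 nm, relative to untreated wells ×100.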

Row | SMILES | MCF7 Viability Assay Max Response [1] | IC50 [1] | Emax [2] | DC50 [2]
1 | CC/C(=C(/c1ccc(/C=C/C(=O)O)cc1)c1ccc2cccnc2c1)c1ccc(F)cc1Cl [Compound 289, (E)-3-(4-((E)-2-(2-Chloro-4-fluorophenyl)-1-(quinolin-7-yl)but-1-en-1-yl)phenyl)acrylic acid] | ++ (++ = a single % value ≧ 40%) | > 100 nM | ≥ 40% | ≤ 100 nM
2 | CC/C(=C(/c1ccc(/C=C/C(=O)O)cc1)c1ccc2[nH]ncc2c1)c1ccc(Oc2ncccn2)cc1 [Compound 290, (E)-3-(4-((E)-1-(1H-Indazol-5-yl)-2-(4-(pyrimidin-2-yloxy)phenyl)but-1-en-1-yl)phenyl)acrylic acid] | ++ (++ = a single % value ≧ 40%) | ≤ 100 nM | ≥ 40% | ≤ 100 nM
3 | CC/C(=C(/c1ccc(/C=C/C(=O)O)cc1)c1ccc2[nH]ncc2c1)c1ccc(Oc2ccccc2)cc1Cl [Compound 291, (E)-3-(4-((E)-2-(2-Chloro-4-phenoxyphenyl)-1-(1H-indazol-5-yl)but-1-en-1-yl)phenyl)acrylic acid] | ++ (++ = a single % value ≧ 40%) | ≤ 100 nM | ≥ 40% | ≤ 100 nM
4 | CC/C(=C(/c1ccc(/C=C/C(=O)O)cc1)c1ccc2[nH]ncc2c1)c1ccc(Oc2cccnc2)cc1 [Compound 292, (E)-3-(4-((E)-1-(1H-Indazol-5-yl)-2-(4-(pyridin-3-yloxy)phenyl)but-1-en-1-yl)phenyl)acrylic acid] | ++ (++ = a single % value ≧ 40%) | ≤ 100 nM | ≥ 40% | ≤ 100 nM
5 | CC/C(=C(/c1ccc(/C=C/C(=O)O)cc1)c1ccc2[nH]ncc2c1)c1ccc(Oc2cnccn2)cc1 [Compound 293, (E)-3-(4-((E)-1-(1H-Indazol-5-yl)-2-(4-(pyrazin-2-yloxy)phenyl)but-1-en-1-yl)phenyl)acrylic acid] | ++ (++ = a single % value ≧ 40%) | ≤ 100 nM | ≥ 40% | ≤ 100 nM
6 | CC/C(=C(/c1ccc(/C=C/C(=O)O)cc1)c1ccc2[nH]ncc2c1)c1ccc(F)c(Oc2ccccc2)c1 [Compound 294, (E)-3-(4-((E)-2-(4-Fluoro-3-phenoxyphenyl)-1-(1H-indazol-5-yl)but-1-en-1-yl)phenyl)acrylic acid] | ++ (++ = a single % value ≧ 40%) | ≤ 100 nM | ≥ 40% | ≤ 100 nM
7 | CC/C(=C(/c1ccc(/C=C/C(=O)O)cc1)c1ccc2[nH]ncc2c1)c1ccc(Oc2ccccc2)c(F)c1 [Compound 295, (E)-3-(4-((E)-2-(3-Fluoro-4-phenoxyphenyl)-1-(1H-indazol-5-yl)but-1-en-1-yl)phenyl)acrylic acid] | ++ (++ = a single % value ≧ 40%) | ≤ 100 nM | ≥ 40% | ≤ 100 nM
8 | CC/C(=C(/c1ccc(/C=C/C(=O)O)cc1)c1ccc2[nH]ncc2c1F)c1ccc(Oc2ccccn2)cc1 [Compound 296, (E)-3-(4-((E)-1-(4-Fluoro-1H-indazol-5-yl)-2-(4-(pyridin-2-yloxy)phenyl)but-1-en-1-yl)phenyl)acrylic acid] | ++ (++ = a single % value ≧ 40%) | ≤ 100 nM | ≥ 40% | ≤ 100 nM
9 | CC/C(=C(/c1ccc(/C=C/C(=O)O)cc1)c1ccc2[nH]ncc2c1)c1cc(Oc2ccccc2)ccc1C [Compound 297, (E)-3-(4-((E)-1-(1H-Indazol-5-yl)-2-(2-methyl-5-phenoxyphenyl)but-1-en-1-yl)phenyl)acrylic acid] | ++ (++ = a single % value ≧ 40%) | ≤ 100 nM | ≥ 40% | ≤ 100 nM
10 | CC/C(=C(/c1ccc(/C=C/C(=O)O)cc1)c1ccc2[nH]ncc2c1)c1cccc(Oc2ccccc2)c1F [Compound 298, (E)-3-(4-((E)-2-(2-Fluoro-3-phenoxyphenyl)-1-(1H-indazol-5-yl)but-1-en-1-yl)phenyl)acrylic acid] | ++ (++ = a single % value ≧ 40%) | ≤ 100 nM | ≥ 40% | ≤ 100 nM
11 | CC/C(=C(/c1ccc(/C=C/C(=O)O)cc1)c1ccc2scnc2c1)c1cccc(Oc2ccccc2)c1 [Compound 299, (E)-3-(4-((E)-1-(Benzo[d]thiazol-5-yl)-2-(3-phenoxyphenyl)but-1-en-1-yl)phenyl)acrylic acid] | ++ (++ = a single % value ≧ 40%) | > 100 nM | ≥ 40% | ≤ 100 nM
12 | CC/C(=C(/c1ccc(/C=C/C(=O)O)cc1)c1ccc2scnc2c1)c1cccc(Oc2ccccn2)c1 [Compound 300, (E)-3-(4-((E)-1-(Benzo[d]thiazol-5-yl)-2-(3-(pyridin-2-yloxy)phenyl)but-1-en-1-yl)phenyl)acrylic acid] | ++ (++ = a single % value ≧ 40%) | > 100 nM | ≥ 40% | ≤ 100 nM
13 | CC/C(=C(/c1ccc(/C=C/C(=O)O)cc1)c1ccc2scnc2c1)c1cccc(Oc2cnccn2)c1 [Compound 301, (E)-3-(4-((E)-1-(Benzo[d]thiazol-5-yl)-2-(3-(pyrazin-2-yloxy)phenyl)but-1-en-1-yl)phenyl)acrylic acid] | ++ (++ = a single % value ≧ 40%) | > 100 nM | ≥ 40% | ≤ 100 nM
14 | CC/C(=C(/c1ccc(/C=C/C(=O)O)cc1)c1ccc2[nH]ncc2c1)c1ccc([S+]([O-])C(F)(F)F)cc1 (stereo not drawn) [Compound 302, (E)-3-(4-((E)-1-(1H-Indazol-5-yl)-2-(4-((trifluoromethyl)sulfinyl)phenyl)but-1-en-1-yl)phenyl)acrylic acid] | ++ (++ = a single % value ≧ 40%) | ≤ 100 nM | ≥ 40% | ≤ 100 nM
15 | CC/C(=C(/c1ccc(/C=C/C(=O)O)cc1)c1ccc2[nH]ncc2c1)c1ccncc1C#N [Compound 303, (E)-3-(4-((E)-2-(3-Cyanopyridin-4-yl)-1-(1H-indazol-5-yl)but-1-en-1-yl)phenyl)acrylic acid] | ++ (++ = a single % value ≧ 40%) | > 100 nM | ≥ 40% | > 100 nM
16 | CC/C(=C(/c1ccc(/C=C/C(=O)O)cc1)c1ccc2[nH]ncc2c1)c1ccncc1C(F)(F)F [Compound 304, (E)-3-(4-((E)-1-(1H-Indazol-5-yl)-2-(3-(trifluoromethyl)pyridin-4-yl)but-1-en-1-yl)phenyl)acrylic acid] | ++ (++ = a single % value ≧ 40%) | ≤ 100 nM | ≥ 40% | ≤ 100 nM
17 | O=C(O)/C=C/c1ccc(/C(=C(\c2ccncc2Cl)C2CCC2)c2ccc3[nH]ncc3c2)cc1 [Compound 305, (E)-3-(4-((E)-2-(3-Chloropyridin-4-yl)-2-cyclobutyl-1-(1H-indazol-5-yl)vinyl)phenyl)acrylic acid] | ++ (++ = a single % value ≧ 40%) | ≤ 100 nM | ≥ 40% | ≤ 100 nM
18 | CC/C(=C(/c1ccc(/C=C/C(=O)O)cc1)c1ccc2[nH]nc(F)c2c1)c1ccncc1Cl [Compound 306, (E)-3-(4-((E)-2-(3-Chloropyridin-4-yl)-1-(3-fluoro-1H-indazol-5-yl)but-1-en-1-yl)phenyl)acrylic acid] | ++ (++ = a single % value ≧ 40%) | ≤ 100 nM | ≥ 40% | ≤ 100 nM
19 | O=C(O)/C=C/c1ccc(/C(=C(\c2ccncc2Cl)C2CCC2)c2ccc3[nH]nc(F)c3c2)cc1 [Compound 307, (E)-3-(4-((E)-2-(3-Chloropyridin-4-yl)-2-cyclobutyl-1-(3-fluoro-1H-indazol-5-yl)vinyl)phenyl)acrylic acid] | ++ (++ = a single % value ≧ 40%) | ≤ 100 nM | ≥ 40% | ≤ 100 nM
20 | O=C(O)/C=C/c1ccc(/C(=C(\c2ccc(F)cc2Cl)C2CCC2)c2ccc3nccn3c2)cc1 [Compound 311, (E)-3-(4-((E)-2-(2-Chloro-4-fluorophenyl)-2-cyclobutyl-1-(imidazo[1,2-a]pyridin-6-yl)vinyl)phenyl)acrylic acid] | ++ (++ = a single % value ≧ 40%) | ≤ 100 nM | ≥ 40% | ≤ 100 nM
21 | CC/C(=C(/c1ccc(/C=C/C(=O)O)cc1)c1ccc2[nH]nc(F)c2c1)c1cscc1C [Compound 312, (E)-3-(4-((E)-1-(3-Fluoro-1H-indazol-5-yl)-2-(4-methylthiophen-3-yl)but-1-en-1-yl)phenyl)acrylic acid] | ++ (++ = a single % value ≧ 40%) | ≤ 100 nM | ≥ 40% | ≤ 100 nM
